Experimental data reported in patent EP0951284B1, “[…] DERIVATIVES” (priority 1996, dated 1998).
Where a name gives a salt, the structure may show the parent alone.

Assays:
mice = assay: Closed head injury in mice: reference memory, Morris water maze; assay type: in vivo; details: Morris water maze after CHI, compared to saline treated controls (Figure 1)
Experimental: Morris Water Maze Teat: the water maze consists of a circular aluminium pool, 1m in diameter and 60cm in depth, filled with water to a depth of 17.5cm. The hidden goal platform is a glass vessel (15cm diameter x 16. 5cm height) placed upside down at a fixed location in the pool, 1cm below the surface of the water. The water temperature is maintained at 24°C and the pool is always placed in the same position in the room to provide the same extra-maze cues. Prior to CHI (as described in Example 3 above), mice were given 3 trials per day for 5 consecutive days to establish a baseline performance - measured as the latency to find the platform from the same start location. Commencing 24hr after CHI, mice were retested daily for 2 weeks in 3 trials per day.
It appears that immediately post-CHI mice forget the location of the goal.

MAO-B = target: T1, MAO-B (Rattus norvegicus, UniProt P19643); assay: Inhibition of MAO activity following sub-acute (14 days) administration to rats, MAO-B; assay type: in vivo; parameters: from tissue; host or cells: brain, liver and intestine of Sprague Dawley rats; details: 20mg/kg daily for 14 days
T1 sequence (P19643 1-520): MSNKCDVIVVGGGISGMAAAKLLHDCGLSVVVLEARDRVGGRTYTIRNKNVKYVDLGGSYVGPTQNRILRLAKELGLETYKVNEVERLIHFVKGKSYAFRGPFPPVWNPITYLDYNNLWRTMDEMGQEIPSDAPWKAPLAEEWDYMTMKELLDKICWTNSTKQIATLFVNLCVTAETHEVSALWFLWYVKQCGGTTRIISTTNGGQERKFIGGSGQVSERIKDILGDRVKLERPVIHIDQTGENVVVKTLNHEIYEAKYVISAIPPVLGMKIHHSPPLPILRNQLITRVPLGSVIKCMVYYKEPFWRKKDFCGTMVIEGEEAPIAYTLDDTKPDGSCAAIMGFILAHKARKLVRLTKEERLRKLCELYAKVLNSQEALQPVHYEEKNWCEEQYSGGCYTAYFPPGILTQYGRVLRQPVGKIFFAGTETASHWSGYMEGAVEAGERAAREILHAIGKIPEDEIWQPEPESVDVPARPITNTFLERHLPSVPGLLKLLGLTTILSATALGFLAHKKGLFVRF
Experimental: Male Sabra mice, weighing 45-50g were injected with test compound solutions (prepared in 0.9% saline). Each dose was administered to two or three mice. The mice were sacrificed two hours after drug administration or at a time corresponding to the peak AChE inhibition time (see Table 6). The brain and liver were rapidly dissected and stored in appropriate vials on ice. The tissues were weighed, diluted to 1/20 in sucrose 0.3M and stored at -20°C before performance of the MAO assay described above. The results given in Table 6 relate to measurements made on brain tissue only.
Experiments were done with Spague Dawley male rats. Procedures were repeated as described in Examples 2.1 and 2.2, but drug administration was continued daily for 14 days. At the end of this period animals were sacrificed and MAO levels determined in the brain, liver and intestines. Compound 17 was administered sub-cutaneously or per os at a dose of 20mg/kg.

**Q.** For `C#CCNC(C)Cc1cccc(OC(=O)N(C)CC)c1` (stereo not drawn) [Compound 17, 3-(N-Me,N-Etcarbamyloxy)α-methyl, N-propargyl phenethylamine.HCl], which “latency to find the platform” value (mice) is on record?
**A.** The value was “reduction in latency”.

**Q.** And the inhibition at 20 mg/kg (MAO-B; po, Brain)?
**A.** Its inhibition at 20 mg/kg is 72%.

**Q.** And the inhibition at 20 mg/kg (MAO-B; po, Intestine)?
**A.** The inhibition at 20 mg/kg was 40%.

**Q.** And the inhibition at 20 mg/kg (MAO-B; po, Liver)?
**A.** Its inhibition at 20 mg/kg is 74%.

**Q.** What about the inhibition at 20 mg/kg (MAO-B; sc, Brain) of the same compound?
**A.** The inhibition at 20 mg/kg was 87%.

**Q.** What about the inhibition at 20 mg/kg (MAO-B; sc, Intestine) of the same compound?
**A.** Its inhibition at 20 mg/kg is 33%.

**Q.** What about the inhibition at 20 mg/kg (MAO-B; sc, Liver) of the same compound?
**A.** The inhibition at 20 mg/kg was 51%.
